These results are taken from patent publication US20260206760A1, “AZOLE COMPOUNDS FOR CONTROLLING AND COMBATING INVERTEBRATE PESTS” (FMC CORPORATION, priority 2022, published 2026).

What all share (assay type): in vivo
Data set [1] deals with corn planthopper (Peregrinus maidis (Ashmead)). As to the kind of experiment: whole plant or invertebrate. The conditions noted are these: 144 h, sprayed at 50 ppm, nymphs, assessed after 6 days. How it is done: (§1) Test compounds were formulated using a solution containing 10% acetone, 90% water and 300 ppm Activator 90® non-ionic surfactant (Loveland Products, Loveland, Colorado, USA). The formulated compounds were applied in 1 mL of liquid through an atomizer nozzle positioned 1.27 cm (0.5 inches) above the top of each test unit. Test compounds were sprayed at the rates indicated, and each test was replicated three times.
For evaluating control of corn planthopper (Peregrinus maidis (Ashmead)) through contact and/or systemic means, the test unit consisted of a small open container with a 3-4-day-old corn (maize) plant inside. White sand was added to the top of the soil prior to application of the test compound.
Test compounds were formulated and sprayed at 250 and/or 50 ppm and/or 10 ppm. After spraying of the formulated test compound, the test units were allowed to dry for 1 h before they were post-infested with ~15-20 nymphs (18-to-21-day-old). A black, screened cap was placed on the top of each test unit, and the test units were held for 6 days in a growth chamber at 22-24° C. and 50-70% relative humidity. Each test unit was then visually assessed for insect mortality.

Data set [2] has as its system green peach aphid (Myzus persicae (Sulzer)). The data set can be described thus: Test B: control of green peach aphid, spray on radish plant, visual mortality. The note with it: 144 h, assessed after 6 days; for mortality at 50 ppm: sprayed at 50 ppm. How it is done:
as §1
For evaluating control of green peach aphid (Myzus persicae (Sulzer)) through contact and/or systemic means, the test unit consisted of a small open container with a 12-15-day-old radish plant inside. This was pre-infested by placing on a leaf of the test plant 30-40 aphids on a piece of leaf excised from a culture plant (cut-leaf method). The aphids moved onto the test plant as the leaf piece desiccated. After pre-infestation, the soil of the test unit was covered with a layer of sand.
Test compounds were formulated and sprayed at 250 and/or 50 ppm. After spraying of the formulated test compound, each test unit was allowed to dry for 1 hour and then a black, screened cap was placed on top. The test units were held for 6 days in a growth chamber at 19-21° C. and 50-70% relative humidity. Each test unit was then visually assessed for insect mortality.

In data set [3] the test system is cotton melon aphid (Aphis gossypii (Glover)). The data set can be described thus: whole plant or invertebrate. The conditions noted are these: 144 h, assessed after 6 days; for mortality at 50 ppm: sprayed at 50 ppm. How it is done:
as §1
For evaluating control of cotton melon aphid (Aphis gossypii (Glover)) through contact and/or systemic means, the test unit consisted of a small open container with a 5-day-old okra plant inside. This was pre-infested with 30-40 insects on a piece of leaf according to the cut-leaf method, and the soil of the test unit was covered with a layer of sand.
Test compounds were formulated and sprayed at 250 and/or 50 ppm. After spraying, the test units were maintained in a growth chamber for 6 days at 19° C. and 70% relative humidity. Each test unit was then visually assessed for insect mortality.

For data set [4], the system named is sweetpotato whitefly (Bemisia tabaci (Gennadius)). As to the kind of experiment: whole plant or invertebrate. The conditions noted are these: 312 h, sprayed at 50 ppm, eggs on cotton leaf, assessed after 13 days. How it is done:
as §1
For evaluating control of the sweetpotato whitefly (Bemisia tabaci (Gennadius)) through contact and/or systemic means, the test unit consisted of a small open container with a 12-14-day-old cotton plant inside. Prior to the spray application, both cotyledons were removed from the plant, leaving one true leaf for the assay. Adult whiteflies were allowed to lay eggs on the plant and then were removed from the test unit. Cotton plants infested with at least 15 eggs were submitted to the test for spraying.
Test compounds were formulated and sprayed at 50 and/or 10 ppm. After spraying, the test units were allowed to dry for 1 hour. The cylinders were then removed, and the units were taken to a growth chamber and held for 13 days at 28° C. and 50-70% relative humidity. Each test unit was then visually assessed for insect mortality.

Data set [5] concerns diamondback moth (Plutella xylostella (L.)). The note with it: sprayed at 250 ppm; neonate larvae; assessed after 6 days; very good to excellent levels of control efficacy. How it is done: as §1
For evaluating control of diamondback moth (Plutella xylostella (L.)) the test unit consisted of a small open container with a 12-14-day-old mustard plant inside. This was pre-infested with ~50 neonate larvae that were dispensed into the test unit via corn cob grits using an inoculator. The larvae moved onto the test plant after being dispensed into the test unit.
Test compounds were formulated and sprayed at 250 and/or 50 ppm. After spraying of the formulated test compound, each test unit was allowed to dry for 1 hour and then a black, screened cap was placed on top. The test units were held for 6 days in a growth chamber at 25° C. and 70% relative humidity. Plant feeding damage was then visually assessed based on foliage consumed, and larvae were assessed for mortality.

Structures are written as SMILES.

As to `FC(F)(F)Oc1ccc(/C=C/c2ccncc2-n2nccn2)cc1` [Compound 1, 3-(1,2,3-triazol-2-yl)-4-[(1E)-2-[4-(trifluoromethoxy)phenyl]ethenyl]pyridine], the mortality at 50 ppm in data set [1], in data set [2] and in data set [3] was not below 80% each time.

For the compound `Fc1cncc(-n2nccn2)c1C1CC1c1ccc(C(F)(F)F)cc1` (stereo not shown) [Compound 4, 3-fluoro-5-(triazol-2-yl)-4-[2-[4-(trifluoromethyl)phenyl]cyclopropyl]pyridine], the values for the mortality at 50 ppm in data set [4], in data set [2] and in data set [3] were not below 70%, not below 80% and not below 80%, respectively. Also, in data set [5], the “control efficacy (feeding damage and/or mortality)” value is 40% or less feeding damage and/or 100% mortality. Also, the mortality at 250 ppm in data set [2] (sprayed at 250 ppm) and in data set [3] (sprayed at 250 ppm) was not below 80% throughout.

Turning to `Fc1cncc(-n2ccnn2)c1C1CC1c1ccc(C(F)(F)F)cc1` (stereo not shown) [Compound 3, 3-fluoro-5-(triazol-1-yl)-4-[2-[4-(trifluoromethyl)phenyl]cyclopropyl]pyridine], the “control efficacy (feeding damage and/or mortality)” value in data set [5] is given as 40% or less feeding damage and/or 100% mortality.
